Source: patent US4680310A, “Tetrahydronaphthalene derivatives” (Hoffmann-La Roche Inc., priority 1984, dated 1987)

Assays:
[1] = test system: narcotized dog; experiment: Haemodynamic parameters in the narcotized dog (test C); format: in vivo; conditions: 0.1 mg/kg i.v.
Description: C. Haemodynamic parameters in the narcotized dog:
The 4 most important measurement parameters (with respective measurement units) of the haemodynamic experiment are: (1) CBF: Coronary Blood Flow (in ml/min)--the velocity of blood flow through the coronary arteries; (2) HR: heart rate (in beats/min)--the heart frequency; (3) BP: blood pressure (in mm Hg)--the blood pressure; and (4) dp/dt: rate of increase in left ventricular pressure (in mm Hg/sec) as a measurement of the contractility force of the heart. The values are given as the % maximum variation from the initial value (Δ%) per dosage administered.
There is thus obtained not only an overall picture of the activity of the substance, but also an estimation as to the potential selectivity for a specific part of the circulatory system in the entire organism. After the administration of an anaesthetic, the dog is intubated and respired artificially. Blood pH, pCO2, pO2 and haemoglobin are measured hourly with a blood-gas analyser. The blood pressure (systolic and diastolic) is measured with a probe in the aorta abdominalis. The heart frequency is recorded by means of a tachometer, which is disengaged from the pressure pulse. For the other measurements the heart must first be opened in order that a probe can be inserted in the left ventricle (heart chamber) for the pressure measurements (dp/dt). The coronary blood flow is measured with a flowing probe in the left coronary artery (descendens).

[2] = test system: ^3 H-nifedipine (or ^3 H-nitrendipine) receptor binding on homogenates or partially-cleaned membranes of rabbit or guinea pig heart; experiment: ^3 H-Nifedipine binding determinations (test A); conditions: nifedipine established as 100%
Protocol: A. ^3 H-Nifedipine binding determinations:
The determination is carried out on homogenates or on partially-cleaned membranes of rabbit or guinea pig heart. The reaction mixture (0.3 ml) consists of 0.2-0.8 mg of membrane protein, 1 nM of ^3 H-nifedipine (or 0.25 nM of ^3 H-nitrendipine) and various concentrations of the test substances. The incubation lasts 30 minutes at 25° C. or 37° C. and is stopped by dilution with the incubation buffer; a filtration is subsequently carried out. The filter-bound radioactivity is measured with a scintillation counter. Specific binding (i.e. receptor-bound) is defined as the differences between total and unspecific-bound radioactivity. The unspecific binding is determined in the presence of an excess of non-radioactive nifedipine (1 μM).
The activity (potency) of a compound in this test is defined by the IC50 and % maximum inhibition values (% max. inhibition). The IC50 is the substance concentration (in mol/l) which produces a half-maximum inhibition of the specific ^3 H-nifedipine (or ^3 H-nitrendipine) binding. The maximum inhibition of the specific binding is given by the % maximum inhibition value; this value is established as 100% for the reference compound nifedipine. Both parameters are extrapolated from a concentration-binding curve.

[3] = test system: Coronary artery strips of dogs (KCl contracture; tension-dependent calcium channel); experiment: Relaxation of KCl contracture in coronary artery strips of dogs (test B); format: cell-based, dog; conditions: Canis lupus familiaris, KCl 84.7 mM, 37° C., read-out: IC50 (half-maximum relaxation of a KCl contracture)
Protocol: B. Coronary artery strips of dogs:
In this experiment spiral strips (2-2.5 mm wide and 10 mm long) of coronary arteries of dogs are cut and hung up in an organ chamber under an initial tension of 1.5 g. These strips are pre-incubated for a duration of about 1 to 2 hours in Krebs-Henseleit buffer solution which is gassed with Oxycarbon (a mixture of 95% oxygen and 5% carbon dioxide) at 37° C. The relaxing activity of one of these substances is subsequently tested on a KCl (84.7 mM) contracture by the addition of increasing concentrations of the test substance to the organ chamber. The calcium channel-blocking activity of the test substances can therefore be established, as the KCl contracture occurs exclusively by means of calcium flow through the tension-dependent calcium channel.
The activity of a test substance in this test is given by the IC50 value. This value is defined as the substance concentration (in mol/l) which produces a half-maximum relaxation of a KCl contracture. This value is also extrapolated from the resulting concentration-activity curve.

% max inhib. (maximum inhibition of specific binding) [2] | IC50 [3] | Structure (SMILES) | BP (blood pressure), % maximum variation from the initial value [1] | CBF (Coronary Blood Flow), % maximum variation from the initial value [1] | HR (heart rate), % maximum variation from the initial value [1] | dp/dt (rate of increase in left ventricular pressure), % maximum variation from the initial value [1]
100% | 0.0061 µM | COCC(=O)O[C@]1(CCN(C)CCc2ccc(OC)c(OC)c2)CCc2cc(F)ccc2[C@@H]1C(C)C [B, [1S,2S]-2-[2-[(3,4-dimethoxyphenethyl)methylamino]ethyl]-6-fluoro-1,2,3,4-tetrahydro-1-isopropyl-2-naphthyl methoxyacetate] | -23 Δ % | +100 Δ % | -20 Δ % | +13 Δ %
73% | 0.078 µM | COCC(=O)O[C@@]1(CCN(C)CCc2ccc(OC)c(OC)c2)CCc2cc(F)ccc2[C@H]1C(C)C [C, [1R,2R2-[2[(3,4Dimethoxyphenethyl)methylamino]ethyl6-fluoro-1,2,3,4-tetraydro-1-isopropyl-2-napthyl methoxyacetate] | -16 Δ % | +58 Δ % | -5 Δ % | +26 Δ %

The remaining lines, values behind:

Structure (SMILES) | % max inhib. (maximum inhibition of specific binding) [2] | IC50 [3] | BP (blood pressure), % maximum variation from the initial value [1] | CBF (Coronary Blood Flow), % maximum variation from the initial value [1] | HR (heart rate), % maximum variation from the initial value [1] | dp/dt (rate of increase in left ventricular pressure), % maximum variation from the initial value [1]
COCC(=O)O[C@]1(CCN(C)CCc2ccc(OC)c(OC)c2)CCc2cc(F)ccc2[C@@H]1C(C)C (relative stereo) [A, 2-[2-[(3,4-Dimethoxyphenethyl)methylamino]ethyl]-6-fluoro-1,2,3,4-tetrahydro-1α-isopropyl-2α-naphthyl methoxyacetate] | 77% | 0.0028 µM | -18 Δ % | +93 Δ % | -3 Δ % | -5 Δ %
COc1ccc(CCN(C)CC[C@@]2(OC(C)=O)CCc3cc(OC)c(OC)cc3[C@@H]2C(C)C)cc1OC (relative stereo) [D, 6,7-dimethoxy-2-[2-[(3,4-dimethoxyphenethyl)methylamino]ethyl]-1,2,3,4-tetrahydro-1α-isopropyl-2α-naphthyl acetate] | 82% | 0.087 µM | -9 Δ % | +58 Δ % | -15 Δ % | +3 Δ %
COCC(=O)O[C@]1(CCN(C)CCc2ccc(OC)c(OC)c2)CCc2cc(OC)c(OC)cc2[C@@H]1C(C)C (relative stereo) [E, 6,7-dimethoxy-2-[2-[(3,4-dimethoxyphenethyl)methylamino]ethyl]-1,2,3,4-tetrahydro-1α-isopropyl-2α-naphthyl methoxyacetate] | 88% | 0.02 µM | -12 Δ % | +65 Δ % | -7 Δ % | +22 Δ %
